{"source": "patent US11053204B2", "about": "“Pyrimidinyloxy benzene derivatives as herbicides” (FMC Corporation, priority 2015, dated 2021)", "assay_type_in_all_cases": "in vivo", "key": {"[1]": {"system": "barnyardgrass (Echinochloa crus-galli)", "experiment": "Test A preemergence, visual injury rating", "settings": "for Barnyardgrass plant response rating: 0 to 100 scale (0 no effect, 100 complete control)", "how_it_was_run": "(§1)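 Greenhouse pot test, loam/sand soil. Formulation: non-phytotoxic solvent mix plus surfactant. Pre: directed spray onto soil after sowing. Post: plants at 1–2 leaf, 2–10 cm. Rated visually vs untreated controls at ~10 d, 0 (no effect) to 100 (complete control).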"}, "[2]": {"system": "ragweed (common ragweed, Ambrosia elatior)", "experiment": "Test A preemergence, visual injury rating", "settings": "for Ragweed plant response rating: 0 to 100 scale (0 no effect, 100 complete control)", "how_it_was_run": "as §1"}, "[3]": {"system": "pigweed (Amaranthus retroflexus)", "experiment": "Test A preemergence, visual injury rating", "settings": "for Pigweed plant response rating: 0 to 100 scale (0 no effect, 100 complete control)", "how_it_was_run": "as §1"}, "[4]": {"system": "Italian ryegrass (Lolium multiflorum)", "experiment": "Test A preemergence, visual injury rating", "settings": "for Ryegrass, Italian plant response rating: 0 to 100 scale (0 no effect, 100 complete control)", "how_it_was_run": "as §1"}, "[5]": {"system": "giant foxtail (Setaria faberii)", "experiment": "Test A preemergence, visual injury rating", "settings": "for Foxtail, Giant plant response rating: 0 to 100 scale (0 no effect, 100 complete control)", "how_it_was_run": "as §1"}, "[6]": {"system": "kochia (Kochia scoparia)", "experiment": "Test A preemergence, visual injury rating", "settings": "for Kochia plant response rating: 0 to 100 scale (0 no effect, 100 complete control)", "how_it_was_run": "as §1"}, "[7]": {"system": "barnyardgrass (Echinochloa crus-galli)", "experiment": "Test A postemergence, visual injury rating", "settings": "0 is no effect, 100 is complete control; for Barnyardgrass plant response rating: 0 to 100 scale, approximately 10 days", "how_it_was_run": "as §1"}, "[8]": {"system": "ragweed (common ragweed, Ambrosia elatior)", "experiment": "Test A postemergence, visual injury rating", "settings": "0 is no effect, 100 is complete control; for Ragweed plant response rating: 0 to 100 scale, approximately 10 days", "how_it_was_run": "as §1"}, "[9]": {"system": "blackgrass (Alopecurus myosuroides)", "experiment": "Test A postemergence, visual injury rating", "settings": "0 is no effect, 100 is complete control; for Blackgrass plant response rating: 0 to 100 scale, approximately 10 days", "how_it_was_run": "as §1"}, "[10]": {"system": "wheat (Triticum aestivum)", "experiment": "Test A postemergence, visual injury rating", "settings": "0 is no effect, 100 is complete control; for Wheat plant response rating: 0 to 100 scale, approximately 10 days", "how_it_was_run": "as §1"}, "[11]": {"system": "pigweed (Amaranthus retroflexus)", "experiment": "Test A postemergence, visual injury rating", "settings": "0 is no effect, 100 is complete control; for Pigweed plant response rating: 0 to 100 scale, approximately 10 days", "how_it_was_run": "as §1"}, "[12]": {"system": "Italian ryegrass (Lolium multiflorum)", "experiment": "Test A postemergence, visual injury rating", "settings": "0 is no effect, 100 is complete control; for Ryegrass, Italian plant response rating: 0 to 100 scale, approximately 10 days", "how_it_was_run": "as §1"}, "[13]": {"system": "corn (Zea mays)", "experiment": "Test A postemergence, visual injury rating", "settings": "0 is no effect, 100 is complete control; for Corn plant response rating: 0 to 100 scale, approximately 10 days", "how_it_was_run": "as §1"}, "[14]": {"system": "giant foxtail (Setaria faberii)", "experiment": "Test A postemergence, visual injury rating", "settings": "0 is no effect, 100 is complete control; for Foxtail, Giant plant response rating: 0 to 100 scale, approximately 10 days", "how_it_was_run": "as §1"}, "[15]": {"system": "galium (catchweed bedstraw, Galium aparine)", "experiment": "Test A postemergence, visual injury rating", "settings": "0 is no effect, 100 is complete control; for Galium plant response rating: 0 to 100 scale, approximately 10 days", "how_it_was_run": "as §1"}, "[16]": {"system": "kochia (Kochia scoparia)", "experiment": "Test A postemergence, visual injury rating", "settings": "0 is no effect, 100 is complete control; for Kochia plant response rating: 0 to 100 scale, approximately 10 days", "how_it_was_run": "as §1"}, "[17]": {"system": "barnyardgrass (Echinochloa crus-galli)", "experiment": "Test B flooded paddy test, plant response rating", "settings": "250 g ai/ha; Flood; scale of 0 to 100 where 0 is no effect and 100 is complete control; 13 to 15 days", "how_it_was_run": "(§2)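 Ratings were visual and made relative to untreated controls after 13 to 15 greenhouse days.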"}, "[18]": {"system": "sedge, umbrella (small-flower umbrella sedge, Cyperus difformis)", "experiment": "Test B flooded paddy test, plant response rating", "settings": "250 g ai/ha; Flood; scale of 0 to 100 where 0 is no effect and 100 is complete control; 13 to 15 days", "how_it_was_run": "as §2"}, "[19]": {"system": "ducksalad (Heteranthera limosa)", "experiment": "Test B flooded paddy test, plant response rating", "settings": "250 g ai/ha; Flood; scale of 0 to 100 where 0 is no effect and 100 is complete control; 13 to 15 days", "how_it_was_run": "as §2"}, "[20]": {"system": "rice (Oryza sativa)", "experiment": "Test B flooded paddy test, plant response rating", "settings": "250 g ai/ha; Flood; scale of 0 to 100 where 0 is no effect and 100 is complete control; 13 to 15 days", "how_it_was_run": "as §2"}, "[21]": {"settings": "31 g ai/ha, 0 to 100 scale, 0 no effect, 100 complete control"}}, "data": [{"smiles": "CCSC(=O)c1c(Br)cccc1Oc1ncc(Cl)cn1", "note": "[Compound 83]", "values": [{"measurement": "Barnyardgrass plant response rating", "setting": "[1]; 125 g ai/ha", "value": 30}, {"measurement": "Barnyardgrass plant response rating", "setting": "[1]; 500 g ai/ha", "value": 90}, {"measurement": "Ragweed plant response rating", "setting": "[2]; 125 g ai/ha", "value": 0}, {"measurement": "Ragweed plant response rating", "setting": "[2]; 500 g ai/ha", "value": 0}, {"measurement": "Pigweed plant response rating", "setting": "[3]; 125 g ai/ha", "value": 30}, {"measurement": "Pigweed plant response rating", "setting": "[3]; 500 g ai/ha", "value": 90}, {"measurement": "Ryegrass, Italian plant response rating", "setting": "[4]; 125 g ai/ha", "value": 0}, {"measurement": "Ryegrass, Italian plant response rating", "setting": "[4]; 500 g ai/ha", "value": 0}, {"measurement": "Foxtail, Giant plant response rating", "setting": "[5]; 125 g ai/ha", "value": 90}, {"measurement": "Foxtail, Giant plant response rating", "setting": "[5]; 500 g ai/ha", "value": 100}, {"measurement": "Kochia plant response rating", "setting": "[6]; 125 g ai/ha", "value": 0}, {"measurement": "Kochia plant response rating", "setting": "[6]; 500 g ai/ha", "value": 0}, {"measurement": "Barnyardgrass plant response rating", "setting": "[7]; 125 g ai/ha", "value": 0}, {"measurement": "Barnyardgrass plant response rating (0 to 100 scale)", "setting": "[7]; 500 g ai/ha", "value": 90}, {"measurement": "Ragweed plant response rating", "setting": "[8]; 125 g ai/ha", "value": 0}, {"measurement": "Ragweed plant response rating (0 to 100 scale)", "setting": "[8]; 500 g ai/ha", "value": 0}, {"measurement": "Blackgrass plant response rating", "setting": "[9]; 125 g ai/ha", "value": 0}, {"measurement": "Blackgrass plant response rating (0 to 100 scale)", "setting": "[9]; 500 g ai/ha", "value": 40}, {"measurement": "Wheat plant response rating", "setting": "[10]; 125 g ai/ha", "value": 0}, {"measurement": "Wheat plant response rating (0 to 100 scale)", "setting": "[10]; 500 g ai/ha", "value": 0}, {"measurement": "Pigweed plant response rating", "setting": "[11]; 125 g ai/ha", "value": 30}, {"measurement": "Pigweed plant response rating (0 to 100 scale)", "setting": "[11]; 500 g ai/ha", "value": 70}, {"measurement": "Ryegrass, Italian plant response rating", "setting": "[12]; 125 g ai/ha", "value": 0}, {"measurement": "Ryegrass, Italian plant response rating (0 to 100 scale)", "setting": "[12]; 500 g ai/ha", "value": 0}, {"measurement": "Corn plant response rating", "setting": "[13]; 125 g ai/ha", "value": 20}, {"measurement": "Corn plant response rating (0 to 100 scale)", "setting": "[13]; 500 g ai/ha", "value": 30}, {"measurement": "Foxtail, Giant plant response rating", "setting": "[14]; 125 g ai/ha", "value": 0}, {"measurement": "Foxtail, Giant plant response rating (0 to 100 scale)", "setting": "[14]; 500 g ai/ha", "value": 80}, {"measurement": "Galium plant response rating", "setting": "[15]; 125 g ai/ha", "value": 30}, {"measurement": "Galium plant response rating (0 to 100 scale)", "setting": "[15]; 500 g ai/ha", "value": 20}, {"measurement": "Kochia plant response rating", "setting": "[16]; 125 g ai/ha", "value": 30}, {"measurement": "Kochia plant response rating (0 to 100 scale)", "setting": "[16]; 500 g ai/ha", "value": 90}, {"measurement": "Plant response rating, Barnyardgrass", "setting": "[17]", "value": 0}, {"measurement": "Plant response rating, Sedge, Umbrella", "setting": "[18]", "value": 80}, {"measurement": "Plant response rating, Ducksalad", "setting": "[19]", "value": 80}, {"measurement": "Plant response rating, Rice", "setting": "[20]", "value": 0}]}, {"smiles": "CC(C)COC(=O)c1c(Br)cccc1Oc1ncc(Cl)cn1", "note": "[Compound 1]", "values": [{"measurement": "Plant response rating, Barnyardgrass", "setting": "[1]; [21]", "value": 20}, {"measurement": "Barnyardgrass plant response rating", "setting": "[1]; 125 g ai/ha", "value": 30}, {"measurement": "Plant response rating, Ragweed", "setting": "[2]; [21]", "value": 0}, {"measurement": "Ragweed plant response rating", "setting": "[2]; 125 g ai/ha", "value": 0}, {"measurement": "Plant response rating, Pigweed", "setting": "[3]; [21]", "value": 20}, {"measurement": "Pigweed plant response rating", "setting": "[3]; 125 g ai/ha", "value": 70}, {"measurement": "Plant response rating, Ryegrass, Italian", "setting": "[4]; [21]", "value": 0}, {"measurement": "Ryegrass, Italian plant response rating", "setting": "[4]; 125 g ai/ha", "value": 0}, {"measurement": "Plant response rating, Foxtail, Giant", "setting": "[5]; [21]", "value": 30}, {"measurement": "Foxtail, Giant plant response rating", "setting": "[5]; 125 g ai/ha", "value": 70}, {"measurement": "Plant response rating, Kochia", "setting": "[6]; [21]", "value": 0}, {"measurement": "Kochia plant response rating", "setting": "[6]; 125 g ai/ha", "value": 40}, {"measurement": "Barnyardgrass plant response rating", "setting": "[7]; 31 g ai/ha", "value": 20}, {"measurement": "Barnyardgrass plant response rating (0 to 100 scale)", "setting": "[7]; 125 g ai/ha", "value": 30}, {"measurement": "Ragweed plant response rating", "setting": "[8]; 31 g ai/ha", "value": 0}, {"measurement": "Ragweed plant response rating (0 to 100 scale)", "setting": "[8]; 125 g ai/ha", "value": 10}, {"measurement": "Blackgrass plant response rating", "setting": "[9]; 31 g ai/ha", "value": 0}, {"measurement": "Blackgrass plant response rating (0 to 100 scale)", "setting": "[9]; 125 g ai/ha", "value": 20}, {"measurement": "Wheat plant response rating", "setting": "[10]; 31 g ai/ha", "value": 0}, {"measurement": "Wheat plant response rating (0 to 100 scale)", "setting": "[10]; 125 g ai/ha", "value": 0}, {"measurement": "Pigweed plant response rating", "setting": "[11]; 31 g ai/ha", "value": 40}, {"measurement": "Pigweed plant response rating (0 to 100 scale)", "setting": "[11]; 125 g ai/ha", "value": 70}, {"measurement": "Ryegrass, Italian plant response rating", "setting": "[12]; 31 g ai/ha", "value": 0}, {"measurement": "Ryegrass, Italian plant response rating (0 to 100 scale)", "setting": "[12]; 125 g ai/ha", "value": 0}, {"measurement": "Corn plant response rating", "setting": "[13]; 31 g ai/ha", "value": 0}, {"measurement": "Corn plant response rating (0 to 100 scale)", "setting": "[13]; 125 g ai/ha", "value": 20}, {"measurement": "Foxtail, Giant plant response rating", "setting": "[14]; 31 g ai/ha", "value": 30}, {"measurement": "Foxtail, Giant plant response rating (0 to 100 scale)", "setting": "[14]; 125 g ai/ha", "value": 60}, {"measurement": "Galium plant response rating", "setting": "[15]; 31 g ai/ha", "value": 50}, {"measurement": "Galium plant response rating (0 to 100 scale)", "setting": "[15]; 125 g ai/ha", "value": 70}, {"measurement": "Kochia plant response rating", "setting": "[16]; 31 g ai/ha", "value": 20}, {"measurement": "Kochia plant response rating (0 to 100 scale)", "setting": "[16]; 125 g ai/ha", "value": 30}, {"measurement": "Plant response rating, Barnyardgrass", "setting": "[17]", "value": 0}, {"measurement": "Plant response rating, Sedge, Umbrella", "setting": "[18]", "value": 80}, {"measurement": "Plant response rating, Ducksalad", "setting": "[19]", "value": 20}, {"measurement": "Plant response rating, Rice", "setting": "[20]", "value": 0}]}]}
